Measured values reported in patent US9974801B2, “Methods of treating and preventing diseases and disorders of the central nervous system” (The United States of America, as represented by the …, priority 2012, dated 2018).

Tests used:
[1] = Skull bone permeability analysis (transcranial permeation of fluorescent probes); format: in vivo, mice; settings: applied to intact skull bone as 3 mm bubble; 2P microscopy immediately after loading; FIG. 2
Experimental: Skull bone permeability analysis. For skull bone permeability studies, the following rhodamine-labeled dextrans were placed directly on the intact skull bone for up to 30 min: 3,000 MW (25 mM), 10,000 MW (5 mM), 40,000 MW (1 mM), and 70,000 MW (0.5 mM). SR101 (1 mM), a sulforhodamine dye, was used as a representative of 600 MW compound. Compounds were replenished as needed to prevent drying. Following the incubation period, the skull bone was quickly thinned and imaged. A 3D stack was captured to determine if the fluorescence could be found beneath the skull bone.
This example illustrates the effect of molecular weight of the compounds on the rate of transcranial permeation. To define the time and size of compounds that pass directly through the intact (non-thinned) skull, […] SR101 (600 MW) or different sized rhodamine-dextrans (25 mM 3,000 MW; 5 mM 10,000 MW; 1 mM 40,000 MW; 0.5 mM 70,000 MW) were applied to the skull bone. A 3 mm diameter bubble was left on the skull surface for the amount of time noted in minutes on the y axis of the table above. Because all compounds fluoresced, 2P microscopy was performed immediately after transcranial loading to determine if the compounds were present in the subarachnoid space.

[2] = test system: microglia processes associated with the glial limitans; assay: Length of microglial processes in contact with the glial limitans after meningeal compression injury; format: in vivo, mice; settings: for length of microglial processes in contact with the glial limitans: transcranial administration of antagonist before injury, three hours following injury, p<0.05, FIG. 4
Experimental: (§1) Skull Thinning & Compression Injury. For imaging experiments, mice were anesthetized with ketamine (85 mg/kg), xylazine (13 mg/kg), and acepromazine (2 mg/kg) in PBS and maintained at a core temperature of 37° C. The skull bone over the barrel cortex was then thinned to a thickness of ˜30-40 μm as described (PMID: 20134419). For this procedure, the bone was manually thinned over a 30 minute period, and the amount of downward pressure was kept to a minimum. To induce a compression injury, the skull was thinned within 5 min to a thickness of ˜10-15 μm. Once thinned, the blunt of a surgical instrument was used to gently press the pliable skull bone downward. […] In one set of experiments, the skull bone was intentionally cracked to induce a severe injury. Imaging was performed immediately after injury.
(§2) Intravital two-photon laser scanning microscopy. […] Fluorescence emission was separated by high efficiency custom dichroic mirrors (Semrock) and collected with a NDD4 external detector (Leica). […]
(§3) Purinergic receptor, connexin hemichannel, and ROS antagonism. […] For most studies, the skull bone pre-incubated with antagonists was imaged continuously for 3-10 hrs, after which a 3D stack was captured from both the vehicle and antagonist treated areas for quantitative purposes. […]
Image Analysis. All quantitative analyses and processing of 3D/4D imaging data were performed using Imaris 7.0 software (Bitplane). […] Microglia “honeycomb” reactions were quantified from 434×434×150 μm (xyz) 3D image stacks obtained at selected time points in CX3CR1^gfp/+ mice. […] Afterward, 10 microglia per mouse were randomly selected for quantification of process length. Only cells with all of their processes in the field of view and no more than 50 μm beneath the skull bone were quantified. Microglial processes that were touching (flat against) the glial limitans were labeled and measured using the Imaris “filaments” tool. […]

[3] = test system: phagocytic microglia (jellyfish morphology); assay: Phagocytic (jellyfish) microglia after meningeal compression injury, 2P microscopy; format: in vivo, heterozygous CX3CR1-GFP mice; settings: p<0.05; for percentage of phagocytic (jellyfish) microglia in the imaging field: antagonist in aCSF applied to skull bone 30 min prior to injury, quantified 3 hrs post-injury, vs vehicle, FIG. 3
Experimental: as §1
Intravital two-photon laser scanning microscopy. Mice with a normally thinned or compressed skull bone were imaged using a Leica SP5 two-photon imaging system (Leica Microsystems, Bannockburn, Ill.) equipped with an 8000 Hz resonant scanner, a 20×/1.0 NA dipping objective, and two Mai Tai HP DeepSee Lasers (SpectraPhysics) tuned to 905, 920 or 970 nm. Fluorescence emission was separated by high efficiency custom dichroic mirrors (Semrock) and collected with a NDD4 external detector (Leica). Stacks of images were acquired using a step size of 1.0 μm to a depth of 150 μm. Time lapse movies were acquired with 1 min intervals between 3D stacks. For all imaging studies, the 20× lens was submerged directly into artificial cerebral spinal fluid (aCSF; 119 mM NaCl, 26.2 mM NaHCO3, 2.5 mm KCl, 1 mM NaH2PO4, 1.3 mM MgCl2, 1.2 mM CaCl2, 0.4% glucose, pH 7.4) placed atop the thinned skull.
Purinergic receptor, connexin hemichannel, and ROS antagonism. Prior to skull thinning, antagonists diluted in aCSF were applied directly to the skull bone, and vehicle was simultaneously applied to the opposite hemisphere to serve as a control. […] Vehicle and purinergic receptor antagonists were applied as a 3 mm diameter bubble on the skull surface and replenished as needed over a 30 min incubation period to prevent drying. This allowed the antagonists to continuously pass through the skull bone. Following the 30 min incubation, the skull was dried and then thinned to induce a compression injury over both hemispheres. Imaging was initiated immediately after injury. For most studies, the skull bone pre-incubated with antagonists was imaged continuously for 3-10 hrs, after which a 3D stack was captured from both the vehicle and antagonist treated areas for quantitative purposes. […] A similar study was conducted using 10 mM CBX.
Image Analysis. All quantitative analyses and processing of 3D/4D imaging data were performed using Imaris 7.0 software (Bitplane). Supplemental movies were constructed and annotated using Adobe Premiere Pro CS4. Microglia “honeycomb” reactions were quantified from 434×434×150 μm (xyz) 3D image stacks obtained at selected time points in CX3CR1^gfp/+ mice. This was accomplished by measuring the total length of microglial processes in contact with the glial limitans. […] Afterward, 10 microglia per mouse were randomly selected for quantification of process length. Only cells with all of their processes in the field of view and no more than 50 μm beneath the skull bone were quantified. Microglial processes that were touching (flat against) the glial limitans were labeled and measured using the Imaris “filaments” tool. […]

neutrophils = assay: Neutrophil recruitment following meningeal compression injury; format: in vivo, LysM-GFP transgenic reporter mouse; settings: p<0.05
Experimental: Skull Thinning & Compression Injury. For imaging experiments, mice were anesthetized with ketamine (85 mg/kg), xylazine (13 mg/kg), and acepromazine (2 mg/kg) in PBS and maintained at a core temperature of 37° C. The skull bone over the barrel cortex was then thinned to a thickness of ˜30-40 μm as described (PMID: 20134419). For this procedure, the bone was manually thinned over a 30 minute period, and the amount of downward pressure was kept to a minimum. To induce a compression injury, the skull was thinned within 5 min to a thickness of ˜10-15 μm. Once thinned, the blunt of a surgical instrument was used to gently press the pliable skull bone downward. […]
as §2, §3
Image Analysis. All quantitative analyses and processing of 3D/4D imaging data were performed using Imaris 7.0 software (Bitplane). […] Afterward, 10 microglia per mouse were randomly selected for quantification of process length. […]

Row | Compound | length of microglial processes in contact with the glial limitans [2] | percentage of phagocytic (jellyfish) microglia in the imaging field [3] | further results
1 | O=S(=O)([O-])c1cc(S(=O)(=O)O)ccc1C1=c2cc3c4c(c2Oc2c1cc1c5c2CCCN5CCC1)CCC[N+]=4CCC3 [SR101] | – | – | rate of passage through the skull into the subarachnoid space [1]: pass through the skull more quickly than larger compounds
2 | CSc1nc(N)c2ncn([C@@H]3O[C@H](COP(=O)(O)O)[C@@H](O)[C@H]3O)c2n1 [MeSAMP] | significantly reduced | significantly reduced | –
3 | Nc1ncnc2c1ncn2[C@@H](C=O)O[C@@H](C=O)COP(=O)(O)OP(=O)(O)OP(=O)(O)O [oxidized ATP] | – | not | neutrophil recruitment to the injury site (neutrophils; transcranial P2X7 antagonist applied to skull before injury, FIG. 5): completely blocked
4 | trinitrophenyl-ATP hydrate [TNP-ATP hydrate] | significantly reduced | significantly reduced | –
5 | N[C@@H](CCC(=O)N[C@@H](CS)C(=O)NCC(=O)O)C(=O)O [glutathione] | – | – | microglia extending their processes and contacting the glial limitans ([2]; pretreatment with 100 mM, transcranial, FIG. 10): completely prevented; formation of phagocytic (jellyfish) microglia following injury ([3]; pretreatment with 100 mM, transcranial, FIG. 9): eliminated the formation; recruitment of neutrophils following compression injury (neutrophils; pretreatment with 100 mM, transcranial, FIG. 8): significantly reduced
6 | S=C=Nc1cccc(NC(=S)NCCCCNC(=S)Nc2cccc(N=C=S)c2)c1 [MRS2578] | – | significantly reduced | –
